This is an account of results in patent US8835428B2, “Diacylglycerol acyltransferase inhibitors” (Piramal Enterprises Limited, priority 2008, dated 2014).

One may read the inhibition as how much of the control response was suppressed. The low end stands for a response near the control, the high end for a response far below the control.

The first test addresses T1, hDGAT1 (Homo sapiens, UniProt O75907).
T1 construct: host or cells: Sf9 insect cells (baculovirus); microsomal preparation
T1 sequence (O75907 1-488): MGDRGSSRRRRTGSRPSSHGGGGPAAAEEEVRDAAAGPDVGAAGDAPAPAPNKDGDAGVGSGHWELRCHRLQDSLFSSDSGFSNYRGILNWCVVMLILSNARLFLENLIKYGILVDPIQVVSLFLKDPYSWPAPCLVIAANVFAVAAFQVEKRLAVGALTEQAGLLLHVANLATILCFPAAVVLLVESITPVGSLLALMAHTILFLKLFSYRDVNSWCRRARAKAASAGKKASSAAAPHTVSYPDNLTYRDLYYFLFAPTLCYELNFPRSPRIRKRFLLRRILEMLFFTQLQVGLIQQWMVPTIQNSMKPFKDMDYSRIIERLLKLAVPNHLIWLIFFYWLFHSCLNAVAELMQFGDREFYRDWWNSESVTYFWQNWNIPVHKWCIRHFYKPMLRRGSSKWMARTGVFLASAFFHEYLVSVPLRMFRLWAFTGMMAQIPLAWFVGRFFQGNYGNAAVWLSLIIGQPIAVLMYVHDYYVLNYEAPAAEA
Briefly: In-vitro DGAT1 assay (hDGAT1 microsomes from Sf9 cells, 14C oleoyl CoA, triglyceride formation). To be noted: At 1 μM. Format: biochemical. The method in brief: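 Compounds tested in duplicate at 10, 5 and 1 μM for 10 min at 37 °C. Reaction: Sf9-expressed hDGAT1 microsomes (2.5–10 μg), [14C]oleoyl-CoA plus 409.5–1638 μM dioleoylglycerol, pH 7.4 Tris-HCl with fatty-acid-free BSA. Radiolabelled triglyceride extracted into heptane and scintillation-counted.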
`CC(C)[C@@H](C(=O)O)N(C)C(=O)c1cc(-c2ccc(NC(=O)Nc3ccc(F)cc3)cc2)no1` [Example 308, (S)-2-(3-(4-(3-(4-fluorophenyl)ureido)phenyl)-N-methylisoxazole-5-carboxamido)-3-methylbutanoic acid] had an inhibition at 1 µM of 50 to 75%.

As to `Cc1cc(C)cc(NC(=O)Nc2ccc(-c3cc(C(=O)N[C@H](C(=O)O)C(C)C)on3)cc2)c1` [Example 205, (S)-2-(3-(4-(3-(3,5-dimethylphenyl)ureido)phenyl)isoxazole-5-carboxamido)-3-methylbutanoic acid], the inhibition at 1 µM fell in the range of 50 to 75%.

`O=C(Nc1ccc(-c2cc(C(=O)N3CCC[C@H]3C(=O)O)on2)cc1)Nc1ccccc1F` [Example 262, (S)-1-(3-(4-(3-(2-Fluorophenyl)ureido)phenyl)isoxazole-5-carbonyl) pyrrolidine-2-carboxylic acid] had an inhibition at 1 µM of 50 to 75%.

In turn, `CC(C)[C@H](NC(=O)c1cc(-c2ccc(NC(=O)Nc3cc(F)ccc3F)cc2)no1)C(=O)O` [Example 199, (S)-2-(3-(4-(3-(2,5-Difluorophenyl)ureido)phenyl)isoxazole-5-carboxamido)-3-methylbutanoic acid] gave an inhibition at 1 µM of 75 to 100%.

For `CC(C)C(NC(=O)c1cc(-c2ccc(NC(=O)Nc3ccc(OC(F)(F)F)c(Cl)c3)cc2)no1)C(=O)O` (centres unmarked) [Example 289, (3-(4-(3-(3-chloro-4-(trifluoromethoxy)phenyl)ureido)phenyl)isoxazole-5-carboxamido)-3-methylbutanoic acid], the “% inhibition of hDGAT1” value was “+++ (>75% Inhibition ≦100)”.

In turn, `CC(C)[C@H](NC(=O)c1csc(-c2ccc(NC(=O)Nc3ccc(F)c(F)c3)cc2)n1)C(=O)O` [Example 371, (S)-2-(2-(4-(3-(3,4-Difluorophenyl)ureido)phenyl)thiazole-4-carboxamido)-3-methylbutanoic acid] gave an inhibition at 1 µM of 0 to 50%.

In turn, `CCS/C(=N\[C@@H](C(=O)OC)C(C)C)c1cc(-c2ccc(NC(=O)Nc3ccc(C)cc3)cc2)no1` [Example 225, (R,Z)-Methyl 2-(ethylthio(3-(4-(3-p-tolylureido)phenyl)isoxazol-5-yl)methyleneamino)-3-methylbutanoate] gave an inhibition at 1 µM of 0 to 50%.

Turning to `CC(C)C(NC(=O)c1cc(-c2ccc(NC(=O)c3ccc(C(C)(C)C)cc3)cc2)no1)C(=O)O` (centres unmarked) [Example 297, 2-(3-(4-(4-tert-butylbenzamido)phenyl)isoxazole-5-carboxamido)-3-methylbutanoic acid], the inhibition at 1 µM fell in the range of 75 to 100%.

Still in this test, the particulars now being: At 5 μM.
`COC(=O)[C@@H](NC(=O)c1cc(-c2ccc(NC(=O)Nc3cccc(C)c3)cc2)no1)C(C)C` [Example 265, (S)-methyl 3-methyl-2-(3-(4-(3-m-tolylureido)phenyl)isoxazole-5-carboxamido)butanoate] displayed an inhibition at 5 µM of 50 to 75%.

On to `Cc1ccc(NC(=O)Nc2ccc(-c3cc(C(=O)NCCCC(=O)O)on3)cc2)cc1` [Example 256, 4-(3-(4-(3-p-Tolylureido)phenyl)isoxazole-5-carboxamido)butanoic acid], for which the inhibition at 5 µM lay in the range of 50 to 75%.

Compound `COC(=O)C(NC(=O)c1cc(-c2ccc(NC(=O)Nc3ccc(C(F)(F)F)cc3)cc2)no1)C(C)C` (centres unmarked) [Example 275, Methyl 3-methyl-2-(3-(4-(3-(4-(trifluoromethyl)phenyl)ureido)phenyl)isoxazole-5-carboxamido)butanoate] had an inhibition at 5 µM of 0 to 50%.

Compound `Cc1cc(F)ccc1NC(=O)Nc1ccc(-c2cc(C(=O)NC(C(=O)O)C(C)C)on2)cc1` (centres unmarked) [Example 285, 2-(3-(4-(3-(4-fluoro-2-methylphenyl)ureido)phenyl)isoxazole-5-carboxamido)-3-methylbutanoic acid] registered an inhibition at 5 µM of 75 to 100%.

The compound `CC(C)[C@H](NC(=O)c1nc(-c2ccc(NC(=O)Nc3ccc(F)cc3)cc2)no1)C(=O)O` [Example 343, (S)-2-(3-(4-(3-(4-Fluorophenyl)ureido)phenyl)-1,2,4-oxadiazole-5-carboxamido)-3-methylbutanoic acid] registered an inhibition at 5 µM of 50 to 75%.

For the compound `CC(C)[C@H](NC(=O)c1nc(-c2ccc(NC(=O)Nc3ccccc3F)cc2)no1)C(=O)O` [Example 349, (S)-2-(3-(4-(3-(2-Fluorophenyl)ureido)phenyl)-1,2,4-oxadiazole-5-carboxamido)-3-methylbutanoic acid], the inhibition at 5 µM was 50 to 75%.

As to `CC(C)[C@H](NC(=O)c1cc(-c2ccc(NC(=O)Nc3ccc(F)cc3F)cc2F)no1)C(=O)O` [Example 142, (S)-2-(3-(4-(3-(2,4-difluorophenyl)ureido)-2-fluorophenyl)isoxazole-5-carboxamido)-3-methylbutanoic acid], the inhibition at 5 µM is 75 to 100%.

With `Cc1ccc(NC(=O)Nc2ccc(-c3cc(C(=O)N[C@@H](Cc4ccc(O)cc4)C(=O)O)on3)cc2)cc1` [Example 273, (S)-3-(4-Hydroxyphenyl)-2-(3-(4-(3-p-tolylureido)phenyl)isoxazole-5-carboxamido)propanoic acid], the inhibition at 5 µM was in the range of 50 to 75%.

The same test, now with this note: At 10 μM.
Compound `Cc1cc(NC(=O)Nc2ccc(F)cc2F)ccc1-c1cc(C(=O)NC(CC(C)C)C(=O)O)on1` (centres unmarked) [Example 140, 2-(3-(4-(3-(2,4-difluorophenyl)ureido)-2-methylphenyl)isoxazole-5-carboxamido)-4-methylpentanoic acid] displayed an inhibition at 10 µM of 75 to 100%.

Compound `O=C(Nc1ccc(F)cc1)Nc1ccc(-c2cc(C(=O)NC3(C(=O)O)CCCC3)on2)cc1` [Example 120, 1-(3-(4-(3-(4-fluorophenyl)ureido)phenyl)isoxazole-5-carboxamido) cyclopentanecarboxylic acid] came in with an inhibition at 10 µM of 50 to 75%.

Compound `O=C(O)C1(NC(=S)c2cc(-c3ccc(Nc4nc5ccc(F)cc5s4)cc3)no2)CCCC1` [Example 65, 1-({3-[4-(6-Fluoro-benzothiazol-2-ylamino)-phenyl]-isoxazole-5-carbothioyl}-amino)-cyclopentanecarboxylic acid] showed an inhibition at 10 µM of 0 to 50%.

`COC[C@H](NC(=O)c1cc(-c2ccc(Nc3nc4ccc(F)cc4s3)cc2)no1)C(=O)OC` [Example 12, (S)-2-({3-[4-(6-Fluoro-benzothiazol-2-ylamino)-phenyl]-isoxazole-5-carbonyl}-amino)-3-methoxy-propionic acid methyl ester] came in with an inhibition at 10 µM of 50 to 75%.

Take `COC(=O)C1(NC(=O)c2cc(-c3ccc(NC(=O)Nc4ccc(F)cc4)cc3)no2)CCCC1` [Example 119, Methyl 1-(3-(4-(3-(4-fluorophenyl)ureido)phenyl)isoxazole-5-carboxamido)cyclopentanecarboxylate]: the inhibition at 10 µM was in the range of 50 to 75%.

In the case of `Cc1ccc(NC(=O)Nc2ccc(F)cc2)cc1-c1cc(C(=O)NC(CC(C)C)C(=O)O)on1` (centres unmarked) [Example 132, 2-(3-(5-(3-(4-fluorophenyl)ureido)-2-methylphenyl)isoxazole-5-carboxamido)-4-methylpentanoic acid], the inhibition at 10 µM is 0 to 50%.

Compound `COC(=O)C(CC(C)C)NC(=O)c1cc(-c2ccc(NC(=O)Nc3ccc(F)cc3F)cc2C)no1` (centres unmarked) [Example 139, Methyl 2-(3-(4-(3-(2,4-difluorophenyl)ureido)-2-methylphenyl)isoxazole-5-carboxamido)-4-methylpentanoate] registered an inhibition at 10 µM of 0 to 50%.

`CC(C)[C@H](NC(=O)c1onc(-c2ccc(NC(=O)Nc3ccc(F)cc3)cc2)c1-c1ccccc1)C(=O)O` [Example 93, (S)-2-[(3-{4-[3-(4-Fluoro-phenyl)-ureido]-phenyl}-4-phenyl-isoxazole-5-carbonyl)-amino]-3-methyl-butyric acid] displayed an inhibition at 10 µM of 0 to 50%.

As for `CCC(C)[C@H](NC(=O)c1cc(-c2ccc(NC(=O)Nc3ccccc3)cc2)no1)C(=O)O` (stereo partly drawn) [Example 79, (S)-3-Methyl-2-({3-[4-(3-phenyl-ureido)-phenyl]-isoxazole-5-carbonyl}-amino)-pentanoic acid], the inhibition at 10 µM fell in the range of 75 to 100%.

Regarding `CC(C)C(NC(=O)c1cc(-c2ccc(NC(=O)Nc3ccc(F)cc3F)cc2)no1)C(=O)O` (centres unmarked) [Example 112, 2-(3-(4-(3-(2,4-Difluorophenyl)ureido)phenyl)isoxazole-5-carboxamido)-3-methylbutanoic acid], the inhibition at 10 µM fell in the range of 75 to 100%.
